Measured values: patent US9499550B2 (BRISTOL-MYERS SQUIBB COMPANY, priority 2012, dated 2016)
Read-outs that look alike come from different tables or passages of the source.

How the values were obtained:
[1] = test system: HCV genotype 1b (Con1) replicon in HUH-7 cells; experiment: HCV replicon luciferase reporter assay, genotype 1b; type: cell-based; conditions: Hepatitis C virus, Huh-7, 72 h, 3 days incubation, read-out: LE_1b (EC50, range)
Summary of the method: (§1)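 Replicon inhibition for both genotypes was measured as Renilla luciferase signal (EnduRen, 7.5 μM final, 2 h) after 3-day, 37° C exposure of replicon-bearing HUH-7 cells in 4% FCS DMEM, 0.5% DMSO. The 1b construct carries S1179I; the 1a H77 construct carries P1496L and S2204I. Twenty-point, 3-fold dilutions were fitted four-parametrically for EC50, and CC50 was taken from multiplexed Cell Titer-Blue.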

[2] = test system: HCV genotype 1a (H77 strain) replicon in HUH-7 cells; experiment: HCV replicon luciferase reporter assay, genotype 1a; type: cell-based; conditions: Hepatitis C virus, Huh-7, 72 h, 3 days incubation, read-out: LE_1a (EC50, range)
Summary of the method: as §1

[3] = HCV genotype 1b replicon luciferase
[4] = HCV genotype 1a replicon luciferase
[5] = HCV genotype 1b replicon luciferase assay, range class
[6] = HCV genotype 1a replicon luciferase assay, range class
[7] = GETYPE1B, HCV genotype 1b replicon luciferase
[8] = GETYPE1A, HCV genotype 1a replicon luciferase

CCOc1cc2ccccc2c(O[C@@H]2C[C@H]3C(=O)N[C@]4(C(=O)NS(=O)(=O)C5(C)CC5)C[C@H]4/C=C\CC[C@@H](C)C[C@@H](C)[C@H](NC(=O)OC(C)(C)C(C)(F)F)C(=O)N3C2)n1 [Compound 6102, 3,3-difluoro-2-methylbutan-2-yl((2R,6S,7R,9R,13aS,14aR,16aS,Z)-2-((3-ethoxyisoquinolin-1-yl)oxy)-7,9-dimethyl-14a-(((1-methylcyclopropyl)sulfonyl)carbamoyl)-5,16-dioxo-1,2,3,5,6,7,8,9,10,11,13a,14,14a,15,16,16a-hexadecahydrocyclopropa[e]pyrrolo[1,2-a][1,4]diazacyclopentadecin-6-yl)carbamate]
EC50 [1, 3]: 0.1 to 0.5 nM | EC50 [2, 4]: 0.51 to 1 nM

C[C@H]1CC/C=C\[C@@H]2C[C@@]2(C(=O)NS(=O)(=O)C2(C)CC2)NC(=O)[C@@H]2C[C@@H](Oc3ncc(OCC(F)F)c4ccccc34)CN2C(=O)[C@@H](NC(=O)O[C@H](C)C(F)(F)F)[C@H](C)C1 [Compound 1035, (R)-1,1,1-trifluoropropan-2-yl ((2R,6S,7R,9S,13aS,14aR,16aS,Z)-2-((4-(2,2-difluoroethoxyl)isoquinolin-1-yl)oxy)-7,9-dimethyl-14a-(((1-methylcyclopropyl)sulfonyl)carbamoyl)-5,16-dioxo-1,2,3,5,6,7,8,9,10,11,13a,14,14a,15,16,16a-hexadecahydrocyclopropa[e]pyrrolo[1,2-a][1,4]diazacyclopentadecin-6-yl)carbamate]
EC50 [1, 5]: 4.82 to 103 nM | EC50 [2, 6]: 4.82 to 103 nM

[2H]C([2H])([2H])C(OC(=O)N[C@@H]1C(=O)N2C[C@H](Oc3ncc(OC)c4ccc(F)cc34)C[C@H]2C(=O)N[C@]2(C(=O)NS(=O)(=O)C3CC3)C[C@H]2/C=C\CC[C@@H](C)C[C@H]1CC)(C([2H])([2H])[2H])C(F)(F)F [Compound 5467]
EC50 [1, 3]: 0.1 to 0.5 nM | EC50 [2, 4]: 1.01 to 5 nM

COc1ccc2c(O[C@@H]3C[C@H]4C(=O)N[C@]5(C(=O)NS(=O)(=O)C6(C)CC6)C[C@H]5/C=C\CC[C@@H](C)C[C@@H](C)[C@H](NC(=O)OC(C)(C)C)C(=O)N4C3)nc(-c3ccc(C(C)(C)C)cc3)cc2c1 [Compound 4078, tert-butyl (2R,6S,7R,9R,13aS,14aR,16aS,Z)-2-(3-(4-tert-butylphenyl)-6-methoxyisoquinolin-1-yloxy)-7,9-dimethyl-14a-(1-methylcyclopropylsulfonylcarbamoyl)-5,16-dioxo-1,2,3,5,6,7,8,9,10,11,13a,14,14a,15,16,16a-hexadecahydrocyclopropa[e]pyrrolo[1,2-a][1,4]diazacyclopentadecin-6-ylcarbamate]
EC50 [1, 3]: 4.82 to 103 nM | EC50 [2, 4]: 4.82 to 103 nM

COc1cc2nc(O[C@@H]3C[C@H]4C(=O)N[C@]5(C(=O)NS(=O)(=O)C6(C)CC6)C[C@H]5/C=C\CC[C@@H](C)C[C@@H](C)[C@H](NC(=O)OC(C)(C)C(F)(F)F)C(=O)N4C3)c(C(F)(F)F)nc2cc1F [Compound 4290]
EC50 [1, 7]: 0.51 to 1 nM | EC50 [2, 8]: 1.01 to 5 nM

CC[C@@H]1C[C@H](C)CC/C=C\[C@@H]2C[C@@]2(C(=O)NS(=O)(=O)C2(C)CC2)NC(=O)[C@@H]2C[C@@H](Oc3nc(OC)cc4cc(OC)ccc34)CN2C(=O)[C@H]1NC(=O)OC(C)(C)C(F)(F)F [Compound 1120, 1,1,1-trifluoro-2-methylpropan-2-yl((2R,6S,7R,9R,13aS,14aR,16aS,Z)-2-((3,6-dimethoxyisoquinolin-1-yl)oxy)-7-ethyl-9-methyl-14a-(((1-methylcyclopropyl)sulfonyl)carbamoyl)-5,16-dioxo-1,2,3,5,6,7,8,9,10,11,13a,14,14a,15,16,16a-hexadecahydrocyclopropa[e]pyrrolo[1,2-a][1,4]diazacyclopentadecin-6-yl)carbamate]
EC50 [1, 5]: < 5.46 nM | EC50 [2, 6]: < 5.46 nM

CC[C@@H]1C[C@H](C)CC/C=C\[C@@H]2C[C@@]2(C(=O)NS(=O)(=O)C2(C)CC2)NC(=O)[C@@H]2C[C@@H](Oc3ncc(OC)c4ccc(Cl)cc34)CN2C(=O)[C@H]1NC(=O)OC(C)(C)C(F)(F)F [Compound 4188]
EC50 [1, 7]: < 5.46 nM | EC50 [2, 8]: < 5.46 nM

CCOc1cc2ccccc2c(O[C@@H]2C[C@H]3C(=O)N[C@]4(C(=O)NS(=O)(=O)C5(CF)CC5)C[C@H]4/C=C\CC[C@@H](C)C[C@@H](C)[C@H](NC(=O)OC(C)(C)C)C(=O)N3C2)n1 [Compound 6108, tert-butyl ((2R,6S,7R,9R,13aS,14aR,16aS,Z)-2-((3-ethoxyisoquinolin-1-yl)oxy)-14a-(((1-(fluoromethyl)cyclopropyl)sulfonyl)carbamoyl)-7,9-dimethyl-5,16-dioxo-1,2,3,5,6,7,8,9,10,11,13a,14,14a,15,16,16a-hexadecahydrocyclopropa[e]pyrrolo[1,2-a][1,4]diazacyclopentadecin-6-yl)carbamate]
EC50 [1, 3]: 0.1 to 0.5 nM | EC50 [2, 4]: 0.51 to 1 nM

C[C@H]1CC/C=C\[C@@H]2C[C@@]2(C(=O)NS(=O)(=O)C2CC2)NC(=O)[C@@H]2C[C@@H](Oc3nccc4c5c(ccc34)N(C)CCO5)CN2C(=O)[C@@H](NC(=O)OC(C)(C)C(F)(F)F)[C@H](C)C1 [Compound 5277, 1,1,1-trifluoro-2-methylpropan-2-yl((2R,6S,7R,9S,13aS,14aR,16aS,Z)-14a-((cyclopropylsulfonyl)carbamoyl)-7,9-dimethyl-2-((4-methyl-3,4-dihydro-2H-[1,4]oxazino[2,3-f]isoquinolin-7-yl)oxy)-5,16-dioxo-1,2,3,5,6,7,8,9,10,11,13a,14,14a,15,16,16a-hexadecahydrocyclopropa[e]pyrrolo[1,2-a][1,4]diazacyclopentadecin-6-yl)carbamate]
EC50 [1, 3]: < 5.46 nM | EC50 [2, 4]: < 5.46 nM

COc1cnc(O[C@@H]2C[C@H]3C(=O)N[C@]4(C(=O)NS(=O)(=O)C5(C)CC5)C[C@H]4/C=C\CC[C@@H](C)C[C@@H](C)[C@H](NC(=O)OC(C)(C)C)C(=O)N3C2)c2ccc(N(C)C)cc12 [Compound 3136, tert-butyl ((2R,6S,7R,9R,13aS,14aR,16aS,Z)-2-((6-(dimethylamino)-4-methoxyisoquinolin-1-yl)oxy)-7,9-dimethyl-14a-(((1-methylcyclopropyl)sulfonyl)carbamoyl)-5,16-dioxo-1,2,3,5,6,7,8,9,10,11,13a,14,14a,15,16,16a-hexadecahydrocyclopropa[e]pyrrolo[1,2-a][1,4]diazacyclopentadecin-6-yl)carbamate]
EC50 [1, 5]: < 5.46 nM | EC50 [2, 6]: < 5.46 nM

[2H]C([2H])([2H])C(OC(=O)N[C@@H]1C(=O)N2C[C@H](Oc3nccc4c5c(ccc34)N(C)CCO5)C[C@H]2C(=O)N[C@]2(C(=O)NS(=O)(=O)C3CC3)C[C@H]2/C=C\CC[C@H](C)C[C@H]1C)(C([2H])([2H])[2H])C([2H])([2H])[2H] [Compound 5287, 1,1,1,3,3,3-hexadeutero-2-(trideuteromethyl)propan-2-yl((2R,6S,7R,9S,13aS,14aR,16aS,Z)-14a-((cyclopropylsulfonyl)carbamoyl)-7,9-dimethyl-2-((4-methyl-3,4-dihydro-2H-[1,4]oxazino[2,3-f]isoquinolin-7-yl)oxy)-5,16-dioxo-1,2,3,5,6,7,8,9,10,11,13a,14,14a,15,16,16a-hexadecahydrocyclopropa[e]pyrrolo[1,2-a][1,4]diazacyclopentadecin-6-yl)carbamate]
EC50 [1, 3]: < 5.46 nM | EC50 [2, 4]: < 5.46 nM

COc1cnc(O[C@@H]2C[C@H]3C(=O)N[C@]4(C(=O)NS(=O)(=O)C5(CF)CC5)C[C@H]4/C=C\CC[C@@H](C)C[C@@H](C)[C@H](NC(=O)OC4(C)CCOCC4)C(=O)N3C2)c2ccccc12 [Compound 1052, 4-methyltetrahydro-2H-pyran-4-yl((2R,6S,7R,9R,13aS,14aR,16aS,Z)-14a-(((1-(fluoromethyl)cyclopropyl)sulfonyl)carbamoyl)-2-((4-methoxyisoquinolin-1-yl)oxy)-7,9-dimethyl-5,16-dioxo-1,2,3,5,6,7,8,9,10,11,13a,14,14a,15,16,16a-hexadecahydrocyclopropa[e]pyrrolo[1,2-a][1,4]diazacyclopentadecin-6-yl)carbamate]
EC50 [1, 5]: < 5.46 nM | EC50 [2, 6]: 4.82 to 103 nM

COc1ccc2c(O[C@@H]3C[C@H]4C(=O)N[C@]5(C(=O)NS(=O)(=O)C6CC6)C[C@H]5/C=C\CC[C@@H](C)C[C@@H](C)[C@H](NC(=O)OC(C)(C)C)C(=O)N4C3)nc(N3CCOCC3)cc2c1 [Compound 3107, tert-butyl ((2R,6S,7R,9R,13aS,14aR,16aS,Z)-14a-((cyclopropylsulfonyl)carbamoyl)-2-((6-methoxy-3-morpholinoisoquinolin-1-yl)oxy)-7,9-dimethyl-5,16-dioxo-1,2,3,5,6,7,8,9,10,11,13a,14,14a,15,16,16a-hexadecahydrocyclopropa[e]pyrrolo[1,2-a][1,4]diazacyclopentadecin-6-yl)carbamate]
EC50 [1, 5]: < 5.46 nM | EC50 [2, 6]: < 5.46 nM

COc1cc2c(OC)cnc(O[C@@H]3C[C@H]4C(=O)N[C@]5(C(=O)NS(=O)(=O)C6(C)CC6)C[C@H]5/C=C\CC[C@@H](C)C[C@@H](C)[C@H](NC(=O)OC(C)(C)C(F)(F)F)C(=O)N4C3)c2cc1F [Compound 4164]
EC50 [1, 7]: < 5.46 nM | EC50 [2, 8]: < 5.46 nM
